According to patent publication US6342219B1 (Board of Regents, The University of Texas System, priority 1999, dated 2002):

Key:
[1] = tested on: cancer patients having progressive disease; details: patients having progressive disease before treatment; cited from earlier work
β-glucuronidase (GUS) = target: T1, β-glucuronidase (GUS) (Escherichia coli, UniProt P05804); assay: Enzymatic activity of the GUS portion; assay type: biochemical, E. coli
T1 construct: made in house; host or cells: E. coli M15 cells
T1 sequence (P05804 whole entry): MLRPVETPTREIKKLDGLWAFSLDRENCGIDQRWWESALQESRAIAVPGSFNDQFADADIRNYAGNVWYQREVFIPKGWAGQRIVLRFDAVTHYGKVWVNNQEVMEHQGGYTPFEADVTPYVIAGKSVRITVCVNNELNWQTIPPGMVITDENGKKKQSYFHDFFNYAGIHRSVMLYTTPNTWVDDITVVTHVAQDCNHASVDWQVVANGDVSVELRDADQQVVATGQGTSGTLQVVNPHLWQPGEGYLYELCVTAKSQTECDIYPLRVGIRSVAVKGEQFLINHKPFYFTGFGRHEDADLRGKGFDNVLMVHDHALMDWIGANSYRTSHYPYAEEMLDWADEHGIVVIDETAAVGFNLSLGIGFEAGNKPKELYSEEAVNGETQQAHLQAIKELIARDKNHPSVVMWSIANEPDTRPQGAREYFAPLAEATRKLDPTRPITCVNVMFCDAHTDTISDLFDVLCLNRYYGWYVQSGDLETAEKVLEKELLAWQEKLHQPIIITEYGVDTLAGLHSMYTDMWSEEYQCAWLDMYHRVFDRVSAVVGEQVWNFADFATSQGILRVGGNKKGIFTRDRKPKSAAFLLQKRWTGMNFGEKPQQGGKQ
From the text: The 6-His GUS was pure based upon SDS-PAGE, where it ran as a single band of 75 kDa band. On gel filtration columns, the 6-His GUS runs as a tetramer of about 300 kDa.
The biological activity of each component of the 2C3-GUS conjugate was confirmed.

[2] = Blood clearance of radioiodinated 2C3-GUS; assay type: in vivo; details: mice, intravenous injection, 125I-labelled
From the text: 2C3-GUS was radioiodinated with ^125I to a specific activity of 5×10^6 cpm/μg.

[3] = tested on: human NCI-H358 NSCLC tumors; assay type: in vivo, SCID mice
VEGFR2 (KDR/Fc) = assay: Coprecipitation assay, VEGFR2/Fc; assay type: binding; details: 40 ng VEGF, 200 ng receptor/Fc
Procedure: 200 ng of soluble forms of VEGFR1 (Flt-1/Fc) or VEGFR2 (KDR/Fc, R&D Systems, Minneapolis, Minn.) were added for a total volume of 50 μl and incubated for 2 hrs. The receptor/Fc constructs were precipitated using Protein A-sepharose beads and the resulting precipitate was washed 4 times with binding buffer.
Reducing sample buffer was added to the pellet and supernatant of each reaction and both were analyzed by 12% SDS-PAGE and transferred to PVDF membranes. […] The soluble receptor/Fc constructs were also detected by using peroxidase-conjugated goat anti-human Fc (Kirkegaard & Perry Laboratories, Inc.)
The receptor/Fc constructs were precipitated by incubation with Protein A sepharose beads. The precipitate was washed and resuspended in reducing sample buffer and separated by 12% SDS-PAGE and transferred to PVDF.

VEGFR1 = VEGFR1 (Homo sapiens, UniProt P17948); details: read-out: Kd of VEGF binding to VEGFR1; Terman et al., 1994; cited from earlier work
Chain of VEGFR1 (P17948 27-1338): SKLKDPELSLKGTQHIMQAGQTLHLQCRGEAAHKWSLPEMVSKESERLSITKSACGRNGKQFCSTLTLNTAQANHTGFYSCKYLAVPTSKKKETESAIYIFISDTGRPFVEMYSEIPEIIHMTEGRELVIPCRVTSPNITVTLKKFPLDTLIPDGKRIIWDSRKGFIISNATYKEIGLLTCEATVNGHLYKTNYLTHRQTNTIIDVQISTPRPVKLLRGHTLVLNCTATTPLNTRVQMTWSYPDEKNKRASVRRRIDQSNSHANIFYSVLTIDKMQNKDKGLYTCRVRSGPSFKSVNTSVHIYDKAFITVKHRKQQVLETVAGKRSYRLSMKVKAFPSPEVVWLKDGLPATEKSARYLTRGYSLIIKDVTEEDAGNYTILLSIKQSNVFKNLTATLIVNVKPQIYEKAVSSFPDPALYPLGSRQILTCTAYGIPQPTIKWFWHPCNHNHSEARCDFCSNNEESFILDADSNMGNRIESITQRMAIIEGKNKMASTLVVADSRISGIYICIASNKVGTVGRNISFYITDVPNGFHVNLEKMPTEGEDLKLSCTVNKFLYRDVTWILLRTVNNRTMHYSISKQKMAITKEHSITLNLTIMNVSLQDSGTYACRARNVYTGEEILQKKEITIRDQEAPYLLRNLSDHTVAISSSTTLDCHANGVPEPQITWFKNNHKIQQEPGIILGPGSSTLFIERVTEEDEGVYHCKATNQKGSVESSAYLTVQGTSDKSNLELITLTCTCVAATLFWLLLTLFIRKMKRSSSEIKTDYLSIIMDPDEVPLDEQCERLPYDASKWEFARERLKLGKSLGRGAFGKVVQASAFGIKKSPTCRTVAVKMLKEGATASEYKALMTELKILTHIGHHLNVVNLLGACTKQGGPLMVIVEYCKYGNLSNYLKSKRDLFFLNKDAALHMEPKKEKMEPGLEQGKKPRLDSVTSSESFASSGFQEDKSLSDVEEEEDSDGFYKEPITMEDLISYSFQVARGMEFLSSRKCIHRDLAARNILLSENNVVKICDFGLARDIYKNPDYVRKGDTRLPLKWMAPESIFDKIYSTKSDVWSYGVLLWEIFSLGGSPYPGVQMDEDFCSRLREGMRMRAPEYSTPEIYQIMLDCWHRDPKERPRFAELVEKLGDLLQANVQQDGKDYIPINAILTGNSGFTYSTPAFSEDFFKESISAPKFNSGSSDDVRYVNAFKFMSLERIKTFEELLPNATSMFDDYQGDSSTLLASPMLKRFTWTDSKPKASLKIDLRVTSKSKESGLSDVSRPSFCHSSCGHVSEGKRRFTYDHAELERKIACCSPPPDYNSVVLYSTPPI

**Q.** For `NC(=O)c1nnn(Cc2cc(Cl)c(C(=O)c3ccc(Cl)cc3)c(Cl)c2)c1N` [CAI, carboxyamidotriazole], which “Disease stabilization, share of cancer patients” value [1] is on record?
**A.** Its value is 49%.

**Q.** Which results are given for 2C3-GUS [Clone 2C3-GUS]?
**A.** Enzymatic activity of the GUS portion (β-glucuronidase (GUS)): retained enzymatic activity; t½ α [2]: about 6 hours; t½ β [2]: about 25 hours; Localization after i.v. injection ([3]; SCID mice bearing subcutaneous NCI-H358): specifically localized to tumor vasculature and surrounding tumor stroma; Staining of normal tissues ([3]; mouse, in vivo): unstained; Time of maximal localization after injection ([3]; mouse, in vivo, sc): 24 to 48 h

**Q.** Which “Blocking of VEGF binding to VEGFR2/Fc in solution” value (VEGFR2 (KDR/Fc)) does the source give for 2C3 F(ab′)2: F(ab′)2 of 2C3 here?
**A.** The value was “blocked”.

**Q.** With VEGF as the compound, how does the Kd (VEGFR1) read?
**A.** Its Kd is 15 to 100 pM.
